Source: PMC11502334, “Fungal glyceraldehyde 3-phosphate dehydrogenase GpdC maintains glycolytic mechanism against reactive nitrogen stress-induced damage” (Frontiers in Microbiology, 2024)

Legend:
[1] = target: T1, rGpdA (GpdA) (Aspergillus nidulans, UniProt P20445); assay: residual GAPDH activity after preincubation; biotin-switch assay; assay type: biochemical; conditions: covalent (S-nitrosation of thiols); 0–1 mM, 1 h, 25°C, pH 7.5; activity measured with NAD+
T1 construct: recombinant from cDNA, vector pET-21a, expressed in E. coli BL21 (DE3), HisTrap purified

[2] = target: T2, rGpdC (GpdC) (Aspergillus nidulans, UniProt Q5BA47); assay: as above; assay type: biochemical; conditions: covalent (S-nitrosation of thiols); 0–1 mM, 1 h, 25°C, pH 7.5; activity measured with NADP+
T2 construct: gene ANIA_02583; recombinant from synthetic E. coli codon-optimized gene, vector pET-21a (Nde I/Hind III), expressed in E. coli BL21 (DE3), HisTrap purified
T2 sequence (Q5BA47 1-354): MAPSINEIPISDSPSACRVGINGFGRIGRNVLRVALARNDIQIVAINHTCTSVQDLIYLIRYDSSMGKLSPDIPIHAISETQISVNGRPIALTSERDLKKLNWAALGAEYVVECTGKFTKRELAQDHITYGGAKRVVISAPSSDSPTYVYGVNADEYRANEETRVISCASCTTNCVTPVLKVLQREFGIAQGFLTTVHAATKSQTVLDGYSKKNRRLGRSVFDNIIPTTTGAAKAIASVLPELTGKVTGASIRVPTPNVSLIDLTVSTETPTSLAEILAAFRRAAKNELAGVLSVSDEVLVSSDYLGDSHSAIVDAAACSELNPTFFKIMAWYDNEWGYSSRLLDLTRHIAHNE

T1 sequence (P20445 whole entry): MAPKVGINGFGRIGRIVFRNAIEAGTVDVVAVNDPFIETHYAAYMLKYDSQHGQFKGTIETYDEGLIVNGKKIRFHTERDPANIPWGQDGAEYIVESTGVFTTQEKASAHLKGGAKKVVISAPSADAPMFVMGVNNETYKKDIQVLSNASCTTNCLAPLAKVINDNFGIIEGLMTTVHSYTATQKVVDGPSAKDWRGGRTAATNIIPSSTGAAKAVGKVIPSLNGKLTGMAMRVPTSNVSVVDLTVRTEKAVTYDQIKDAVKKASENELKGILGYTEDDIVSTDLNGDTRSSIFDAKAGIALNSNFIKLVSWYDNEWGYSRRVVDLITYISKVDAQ

**Q.** How did the “residual GAPDH activity after preincubation; biotin-switch assay” value [1] turn out when `N[C@@H](CCC(=O)N[C@@H](CSN=O)C(=O)NCC(=O)O)C(=O)O` [GSNO] was run?
**A.** GSNO modified the thiol residues of rGpdA and rGpdC to S-nitrosothiol and impaired enzyme activity

**Q.** What about the “residual GAPDH activity after preincubation; biotin-switch assay” value [2] of the same compound?
**A.** GSNO modified the thiol residues of rGpdA and rGpdC to S-nitrosothiol and impaired enzyme activity
